The target in the assay is T1, human α2C receptor (Homo sapiens, UniProt P18825).
T1 construct: expressed in transfected cells; host or cells: CHO cells, also recombinantly expressing chimeric G protein Gαqi3 and mitochondrial obelin (mtOb)
T1 sequence (P18825 1-462): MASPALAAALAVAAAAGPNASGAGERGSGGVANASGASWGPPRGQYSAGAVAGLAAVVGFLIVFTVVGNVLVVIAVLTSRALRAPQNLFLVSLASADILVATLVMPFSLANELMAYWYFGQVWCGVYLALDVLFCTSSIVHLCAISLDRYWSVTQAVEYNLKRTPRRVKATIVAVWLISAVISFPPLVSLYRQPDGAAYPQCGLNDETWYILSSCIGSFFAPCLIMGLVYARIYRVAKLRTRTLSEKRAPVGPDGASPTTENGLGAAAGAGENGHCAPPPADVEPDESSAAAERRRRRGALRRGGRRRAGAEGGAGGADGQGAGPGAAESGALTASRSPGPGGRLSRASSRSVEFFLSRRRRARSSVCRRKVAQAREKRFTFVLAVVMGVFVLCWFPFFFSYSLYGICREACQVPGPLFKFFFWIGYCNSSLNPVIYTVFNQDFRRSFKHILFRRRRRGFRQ
As to the kind of experiment: Antagonism against the adrenoreceptor α2C (luminescence, recombinant CHO cell line). The assay is classed as cell-based. The conditions noted are these: antagonism against adrenoreceptor α2C; noradrenaline 20 nM; tested up to 10 μM; read-out: IC50. As for the experimental part: Antagonism against the adrenoreceptor α1A was tested using a recombinant human α1A receptor CHO cell line which additionally also recombinantly expresses mtAeq (mitochondrial aequorin). Antagonism against the adrenoreceptor α2A was tested using a recombinant human α2A-Gα16 receptor fusion protein CHO cell line (PerkinElmer Life Sciences) which additionally also recombinantly expresses mtAeq. Antagonism against the adrenoreceptor α2B was tested using a recombinant human α2B receptor CHO cell line (PerkinElmer Life Sciences) which additionally also recombinantly expresses mtAeq. Antagonism against the adrenoreceptor α2C was tested using a recombinant human α2C receptor CHO cell line which additionally also recombinantly expresses a chimaric G protein (Gαqi3) and mtOb (mitochondrial obelin).
The cells were cultivated at 37° C. and 5% CO2 in Dulbecco's modified Eagle's Medium/NUT mix F12 with L-glutamine which additionally contains 10% (v/v) inactivated foetal calf serum, 1 mM sodium pyruvate, 0.9 mM sodium bicarbonate, 50 U/ml penicillin, 50 μg/ml streptomycin, 2.5 μg/ml amphotericin B and 1 mg/ml Geneticin. The cells were passaged with enzyme-free Hank's-based cell dissociation buffer. All cell culture reagents used are from Invitrogen (Carlsbad, USA).
Luminescence measurements were carried out on white 384-well microtitre plates. 2000 cells/well were plated in a volume of 25 μl and cultivated for one day at 30° C. and 5% CO2 in cell culture medium with coelenterazine (α2A and α2B: 5 μg/ml; α1a/c and α2C: 2.5 μg/ml). Serial dilutions of the test substances (10 μl) were added to the cells. After 5 minutes, noradrenalinee was added to the cells (35 μl; final concentrations: 20 nM (α1a/c and α2C) or 200 nM (α2A and α2B)), and the emitted light was measured for 50 seconds using a CCD (charge-coupled device) camera (Hamamatsu Corporation, Shizuoka, Japan) in a light-tight box. The test substances were tested up to a maximum concentration of 10 μM. The IC50 values were calculated from the appropriate dose-response curves.

By IC50 is commonly meant the concentration that inhibits the measured activity by half.

Each structure is given as a SMILES string. Where a name gives a salt, the structure may show the parent alone.

For the molecule `CC1CCCN(C2CCN(C(=O)c3ccc(C(=O)NC(C)(C)c4cccc(Cl)c4)cc3)CC2)C1` (centres unmarked) [Example 79, N-[2-(3-Chlorophenyl)propan-2-yl]-4-[(3-methyl-1,4′-bipiperidin-1′-yl)carbonyl]benzamide trifluoroacetic acid salt], the IC50 turned out to be 54 nM.

With `COC(C)(C)c1ccc(C(=O)N2CCC(N3CCCC(COC(C)(C)C)C3)CC2)cc1` (centres unmarked) [Example 119, [3-(tert-Butoxymethyl)-1,4′-bipiperidin-1′-yl][4-(2-methoxypropan-2-yl)phenyl]methanone], the IC50 worked out at 16 nM.

`CC(C)(O)c1ccc(C(=O)N2CCC(N3CCCC(c4ncn[nH]4)C3)CC2)cc1` (centres unmarked) [Example 64]: the IC50 worked out at 393 nM.

As for `C[C@@H]1CCCN(C2CCN(C(=O)c3ccc(C(=O)NCc4ncc(Cl)cc4C(F)(F)F)cc3)CC2)C1` [Example 91, N-{[5-Chloro-3-(trifluoromethyl)pyridin-2-yl]methyl}-4-{[(3R)-3-methyl-1,4′-bipiperidin-1′-yl]carbonyl}benzamide], the IC50 was 13 nM.

As to `COCCc1noc(C2CCCN(C3CCN(C(=O)c4ccc(C(C)(C)C)cc4)CC3)C2)n1` (centres unmarked) [Example 109, (4-tert-Butylphenyl){3[3-(2-methoxyethyl)-1,2,4-oxadiazol-5-yl]-1,4′-bipiperidin-1′-}methanone], the IC50 was found to be 104 nM.

On to `CC1CCCN(C2CCN(C(=O)c3ccc(CC4(C)COC4)cc3)CC2)C1` (centres unmarked) [Example 23, (3-Methyl-1,4′-bipiperidin-1′-yl){4-[(3-methyloxetan-3-yl)methyl]phenyl}methanone], for which the IC50 stood at 136 nM.

On to `C[C@@H]1CCCN(C2CCN(C(=O)c3ccc(C(=O)NC(C)(C)C)c(Cl)c3)CC2)C1` [Example 100, N-tert-Butyl-2-chloro-4-{[(3R)-3-methyl-1,4′-bipiperidin-1′-yl]carbonyl}benzamide formic acid salt], for which the IC50 stood at 27 nM.

For the molecule `CCOC(=O)C1(c2ccc(C(=O)N3CCC(N4CCCC(C)C4)CC3)cc2)CC1` (centres unmarked) [Example 30, 1-(1-{4-[1-(Ethoxycarbonyl)cyclopropyl]benzoyl}piperidin-4-yl)-3-methylpiperidine trifluoroacetic acid salt], the IC50 was 166 nM.

For `CCCC(C)NC(=O)c1ccc(C(=O)N2CCC(N3CCCC(C)C3)CC2)cc1` (centres unmarked) [Example 44, 4-[(3-methyl-1,4′-bipiperidin-1′-yl)carbonyl]-N-(pentan-2-yl)benzamide], the concentration for half-maximal inhibition (IC50) was found to be 55 nM.

Regarding `CC1CCCN(C2CCN(C(=O)c3ccc(C(C)(C)C)cc3)CC2)C1` (single isomer, unassigned) [Example 6, (4-tert-Butylphenyl)(3-methyl-1,4′-bipiperidin-1′-yl)methanone, (−)-enantiomer], the IC50 came out at 91 nM.

Take `CC1CCCN(C2CCN(C(=O)c3ccc(C4(C)COC4)cc3)CC2)C1` (centres unmarked) [Example 25, (3-Methyl-1,4′-bipiperidin-1′-yl) [4-(3-methyloxetan-3-yl)phenyl]methanone]: the IC50 was determined as 101 nM.

With `CC1CCCN(C2CCN(C(=O)c3ccc(C(=O)NC(C)(C)C)cc3F)CC2)C1` (centres unmarked) [Example 102, N-tert-Butyl-3-fluoro-4-[(3-methyl-1,4′-bipiperidin-1′-yl)carbonyl]benzamide hydrochloride], the IC50 is 67 nM.

For the molecule `CC1CCN(C(=O)c2ccc(C(=O)N3CCC(N4CCCC(C)C4)CC3)cc2)C(C)C1` (centres unmarked) [Example 46, (2,4-dimethylpiperidin-1-yl){4-[(3-methyl-1,4′-bipiperidin-1′-yl)carbonyl]phenyl} methanone], the IC50 is 128 nM.

Take `CCOC(=O)C(C)(C)c1ccc(C(=O)N2CCC(N3CCCC(C)C3)CC2)cc1` (centres unmarked) [Example 27, 1-{1-[4-(1-Ethoxy-2-methyl-1-oxopropan-2-yl)benzoyl]piperidin-4-yl}-3-methylpiperidine trifluoroacetic acid salt]: the IC50 amounted to 162 nM.

As for `CC(C)(O)c1ccc(C(=O)N2CCC(N3CCCC(c4nnc(C5CC5)[nH]4)C3)CC2)cc1` (centres unmarked) [Example 60, [3-(5-Cyclopropyl-4H-1,2,4-triazol-3-yl)-1,4′-bipiperidin-1′-yl][4-(2-hydroxypropan-2-yl)phenyl]methanone], the IC50 turned out to be 45 nM.

As to `CCOC(=O)c1ccc(C(=O)N2CCC(N3CCCC(C)C3)CC2)cc1` (centres unmarked) [Example 32, 1-{1-[4-(Ethoxycarbonyl)benzoyl]piperidin-4-yl}-3-methylpiperidine trifluoroacetic acid salt], the IC50 worked out at 222 nM.

As for `COCC1CCCN(C2CCN(C(=O)c3ccc(C(=O)NCc4ncc(F)cc4F)cc3)CC2)C1` (centres unmarked) [Example 97, N-[(3,5-Difluoropyridin-2-yl)methyl]-4-{[3-(methoxymethyl)-1,4′-bipiperidin-1′-yl]carbonyl}benzamide trifluoroacetic acid salt], the IC50 was found to be 10 nM.

Turning to `C[C@@H]1CCCN(C2CCN(C(=O)c3ccc(C(=O)NC(C)(C)C)cc3Cl)CC2)C1` [Example 101, N-tert-Butyl-3-chloro-4-{[(3R)-3-methyl-1,4′-bipiperidin-1′-yl]carbonyl}benzamide formic acid salt], the half-inhibitory concentration (IC50) is 21 nM.

Take `COCC1CCCN(C2CCN(C(=O)c3ccc(C(=O)N(C)Cc4c(F)cccc4F)cc3)CC2)C1` (centres unmarked) [Example 96, N-(2,6-Difluorobenzyl)-4-{[3-(methoxymethyl)-1,4′-bipiperidin-1′-yl]carbonyl}-N-methylbenzamide trifluoroacetic acid salt]: the IC50 is 10 nM.

For `CCCN(CC1CC1)C(=O)c1ccc(C(=O)N2CCC(N3CCCC(C)C3)CC2)cc1` (centres unmarked) [Example 51, N-(cyclopropyl-methyl)-4-[(3-methyl-1,4′-bipiperidin-1′-yl)carbonyl]-N-propylbenzamide], the IC50 turned out to be 180 nM.

As for `CC1CCCN(C2CCN(C(=O)c3ccc(C(=O)NC(C)(C)c4ccccc4)cc3)CC2)C1` (centres unmarked) [Example 71, 4-[(3-Methyl-1,4′-bipiperidin-1′-yl)carbonyl]-N-(2-phenylpropan-2-yl)benzamide trifluoroacetic acid salt], the IC50 stood at 64 nM.

As to `COCC1CCCN(C2CCN(C(=O)c3ccc(C(=O)Nc4c(C)noc4C)cc3)CC2)C1` (centres unmarked) [Example 105, N-(3,5-Dimethyl-1,2-oxazol-4-yl)-4-{[3-(methoxymethyl)-1,4′-bipiperidin-1′-yl]carbonyl}benzamide], the IC50 is 10 nM.

On to `CC(C)(O)c1ccc(C(=O)N2CCC(N3CCCC(OC4CC4)C3)CC2)cc1` (centres unmarked) [Example 112, 3-(Cyclopropyloxy)-1,4′-bipiperidin-1′-yl][4-(2-hydroxypropan-2-yl)phenyl]methanone formic acid salt], for which the IC50 stood at 358 nM.

For `COC(=O)C(C)(C)c1ccc(C(=O)N2CCC(N3CCCC(C)C3)CC2)c(F)c1` (centres unmarked) [Example 41, Methyl 2-{3-fluoro-4-[(3-methyl-1,4′-bipiperidin-1′-yl)carbonyl]phenyl}-2-methylpropanoate trifluoroacetic acid salt], the IC50 stood at 199 nM.

Take `CC(C)(C)c1ccc(C(=O)N2CCC(N3CCCC(OC(=O)NC4CC4)C3)CC2)cc1` (centres unmarked) [Example 16, 1′-(4-tert-Butylbenzoyl)-1,4′-bipiperidin-3-yl cyclopropylcarbamate]: the IC50 came out at 380 nM.

In the case of `C[C@@H]1CCCN(C2CCN(C(=O)c3ccc(C(=O)N(C)Cc4c(F)cccc4F)cc3)CC2)C1` [Example 84, (R)—N-(2,6-Difluorobenzyl)-N-methyl-4-{[(3R)-3-methyl-1,4′-bipiperidin-1′-yl]carbonyl}benzamide trifluoroacetic acid salt], the IC50 turned out to be 3 nM.

The values above are taken from patent US20160318866A1, “SUBSTITUTED BIPIPERIDINYL DERIVATIVES” (Bayer Pharma Aktiengesellschaft, priority 2013, published 2016).
